What all share (format): cell-based
One experiment has as its target T1, human TAAR1 receptors (Homo sapiens, UniProt Q96RJ0).
T1 construct: host or cells: CHO-K1
T1 sequence (Q96RJ0 1-339): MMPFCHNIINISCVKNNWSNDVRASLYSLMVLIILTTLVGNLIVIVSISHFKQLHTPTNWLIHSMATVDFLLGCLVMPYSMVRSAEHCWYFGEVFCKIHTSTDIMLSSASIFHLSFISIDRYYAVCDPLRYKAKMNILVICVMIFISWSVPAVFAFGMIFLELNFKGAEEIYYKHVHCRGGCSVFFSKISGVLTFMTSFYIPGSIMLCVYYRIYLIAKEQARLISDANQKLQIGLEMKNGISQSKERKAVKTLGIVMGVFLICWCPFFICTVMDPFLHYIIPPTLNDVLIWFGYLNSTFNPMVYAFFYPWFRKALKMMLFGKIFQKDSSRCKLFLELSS
Briefly: TAAR1 Agonism Assay: cAMP HTRF assay for Gs coupled receptor TAAR1 (Euroscreen FAST-0987C). The conditions noted are these: CHO-K1 cells expressing human TAAR1, cAMP HTRF. An outline of the steps: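 cAMP accumulation detected by HTRF fluorescence ratio, reagents added in lysis buffer and incubated 1 h at about room temperature. Beforehand, cells (about 3,000 per well) sat with test compound at ten concentrations from 0.3 to 10,000 nM in duplicate for roughly 30 min at about room temperature; tyramine dose-response run alongside.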
(In TR-FRET formats the signal depends on donor and acceptor labels being close together.)

For another experiment, the target named is T2, human 5-HT2A receptor (Homo sapiens, UniProt P28223).
T2 construct: host or cells: CHO-K1
Briefly: 5HT2A Antagonism Assay (Euroscreen FAST-05051), IP-One HTRF. An outline of the steps:
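CHO-K1 cells expressing receptor, 20,000/well, co-incubated with test compound and reference agonist at its EC80 for 60 min at 37 °C. IP1 accumulation read by HTRF after ~1 h detection at room temperature. Compounds tested in duplicate at 0.3–10,000 nM.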

The target of the next experiment is T3, human 5-HT7 receptor (Homo sapiens, UniProt P34969).
T3 construct: host or cells: CHO-K1
Briefly: 5HT7 Antagonism Assay (Euroscreen FAST-0499C), cAMP HTRF. The conditions noted are these: CHO-K1 cells expressing human 5-HT7, reference agonist at EC80, cAMP HTRF. An outline of the steps:
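CHO-K1 cells expressing human 5-HT7, 3000 per well in Krebs-Ringer HEPES with 1 mM IBMX, were exposed for 30 minutes at room temperature to compound plus reference agonist at its EC80. cAMP was read by HTRF after 1 hour; compounds were tested in duplicate from 0.3 to 10,000 nM.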

The mark [1] stands for this setting: 5-HT2A (IC50), CHO-K1 cells expressing human 5-HT2A, reference agonist at EC80, IP-One.
The mark [2] stands for this setting: read-out: 5-HT2A (IC50), CHO-K1 cells expressing human 5-HT2A, reference agonist at EC80, IP-One.

Molecules are shown by their SMILES. Like-named read-outs stand apart in the source and are kept apart here. Some results are limits rather than exact numbers.

Among the data in patent publication US20240245658A1, “TAAR1 AND SEROTONIN MODULATORS, AND PHARMACEUTICAL COMPOSITIONS, AND METHODS OF USE THEREOF” (Sunovion Pharmaceuticals Inc., priority 2021, published 2024) are EC50 and IC50 values, retold here.

T3 sequence (P34969 whole entry): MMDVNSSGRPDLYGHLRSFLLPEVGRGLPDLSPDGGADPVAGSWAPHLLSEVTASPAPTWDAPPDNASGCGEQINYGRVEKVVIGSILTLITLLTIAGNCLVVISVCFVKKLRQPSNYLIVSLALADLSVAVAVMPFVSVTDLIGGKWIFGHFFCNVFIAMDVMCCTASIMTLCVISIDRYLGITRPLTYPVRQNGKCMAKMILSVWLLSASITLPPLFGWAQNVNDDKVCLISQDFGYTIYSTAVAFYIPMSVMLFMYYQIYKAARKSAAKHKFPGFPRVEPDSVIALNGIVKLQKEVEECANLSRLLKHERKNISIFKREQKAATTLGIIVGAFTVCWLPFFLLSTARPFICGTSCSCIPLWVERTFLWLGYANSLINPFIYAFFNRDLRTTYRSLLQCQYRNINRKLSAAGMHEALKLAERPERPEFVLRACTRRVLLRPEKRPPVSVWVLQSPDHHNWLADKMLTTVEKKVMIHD
T2 sequence (P28223 whole entry): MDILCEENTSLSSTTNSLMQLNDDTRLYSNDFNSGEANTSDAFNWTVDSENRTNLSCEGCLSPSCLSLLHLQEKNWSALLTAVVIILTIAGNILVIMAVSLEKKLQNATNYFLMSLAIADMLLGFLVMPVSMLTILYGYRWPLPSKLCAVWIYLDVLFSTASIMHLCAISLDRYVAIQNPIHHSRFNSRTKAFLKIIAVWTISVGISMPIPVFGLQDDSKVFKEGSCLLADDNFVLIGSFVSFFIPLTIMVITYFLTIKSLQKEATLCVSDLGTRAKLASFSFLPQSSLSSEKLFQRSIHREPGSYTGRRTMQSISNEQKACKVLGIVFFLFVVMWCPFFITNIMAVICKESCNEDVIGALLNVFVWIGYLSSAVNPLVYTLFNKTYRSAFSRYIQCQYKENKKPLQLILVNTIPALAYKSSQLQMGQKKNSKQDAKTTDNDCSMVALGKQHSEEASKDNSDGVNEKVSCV

Usually EC50 stands for the concentration at which the effect is half-maximal. One may read the IC50 as the midpoint of a concentration-inhibition curve. Consider `NCC1Cc2cc(Cl)ccc2Oc2cccnc21` (single isomer, unassigned) [Compound 121, (R*)-(8-chloro-10,11-dihydrobenzo[6,7]oxepino[3,2-b]pyridin-11-yl)methanamine], for which the concentration for a half-maximal effect (EC50) at human TAAR1 receptors was less than 1000 nM. Moreover, the 50% inhibitory concentration (IC50) at human 5-HT2A receptor (setting [1]) and at human 5-HT7 receptor was less than 1000 nM throughout.

On human TAAR1 receptors, `CNCC1Cc2cc(Cl)ccc2Oc2cccnc21` (single isomer, unassigned) [Compound 122, (S*)-(8-chloro-10,11-dihydrobenzo[6,7]oxepino[3,2-b]pyridin-11-yl)-N-methylmethanamine] showed a half-maximal effective concentration (EC50) of less than 1000 nM. The figures for the half-maximal inhibitory concentration (IC50) at human 5-HT2A receptor (setting [1]) and at human 5-HT7 receptor were less than 1000 nM and 1000 to 10000 nM, respectively.

`CNCC1Cc2cc(Cl)ccc2Oc2cccnc21` (single isomer, unassigned) [Compound 123, (R*)-(8-chloro-10,11-dihydrobenzo[6,7]oxepino[3,2-b]pyridin-11-yl)-N-methylmethanamine] returned an EC50 on human TAAR1 receptors of less than 1000 nM. Moreover, the half-maximal inhibitory concentration (IC50) at human 5-HT2A receptor (setting [2]) and at human 5-HT7 receptor was less than 1000 nM throughout.

With `NCC1Cc2ccc(Cl)cc2Oc2cccnc21` (single isomer, unassigned) [Compound 124, (S*)-(7-chloro-10,11-dihydrobenzo[6,7]oxepino[3,2-b]pyridin-11-yl)methanamine], the 50% effective concentration (EC50) at human TAAR1 receptors is less than 1000 nM. In addition, the IC50 on human 5-HT2A receptor (setting [1]) was 1000 to 10000 nM; on human 5-HT7 receptor, no less than 10000 nM.

Turning to `NCC1Cc2ccc(Cl)cc2Oc2cccnc21` (single isomer, unassigned) [Compound 125, (R*)-(7-chloro-10,11-dihydrobenzo[6,7]oxepino[3,2-b]pyridin-11-yl)methanamine], on human TAAR1 receptors, the concentration giving a half-maximal response (EC50) is less than 1000 nM. In addition, the IC50 on human 5-HT2A receptor (setting [1]) is greater than 10000 nM; on human 5-HT7 receptor, no less than 10000 nM.

Compound `CNCC1Cc2ccc(Cl)cc2Oc2cccnc21` (single isomer, unassigned) [Compound 126, (S*)-(7-chloro-10,11-dihydrobenzo[6,7]oxepino[3,2-b]pyridin-11-yl)-N-methylmethanamine] displayed a concentration for a half-maximal effect (EC50) at human TAAR1 receptors of less than 1000 nM. The figures for the IC50 at human 5-HT2A receptor (setting [1]) and at human 5-HT7 receptor were less than 1000 nM and no less than 10000 nM, respectively.

`CNCC1Cc2ccc(Cl)cc2Oc2cccnc21` (single isomer, unassigned) [Compound 127, (R*)-(7-chloro-10,11-dihydrobenzo[6,7]oxepino[3,2-b]pyridin-11-yl)-N-methylmethanamine]: the 50% effective concentration (EC50) on human TAAR1 receptors is less than 1000 nM. In addition, the results for the IC50 on human 5-HT2A receptor (setting [2]) and at human 5-HT7 receptor were less than 1000 nM and 1000 to 10000 nM, respectively.

Take `Cc1ccc2c(c1)CC(CN)c1ncccc1O2` (single isomer, unassigned) [Compound 128, (S*)-(8-methyl-10,11-dihydrobenzo[6,7]oxepino[3,2-b]pyridin-11-yl)methanamine]: the EC50 at human TAAR1 receptors was less than 1000 nM. Moreover, the IC50 on human 5-HT2A receptor (setting [1]) and on human 5-HT7 receptor was 1000 to 10000 nM throughout.

With `Cc1ccc2c(c1)CC(CN)c1ncccc1O2` (single isomer, unassigned) [Compound 129, (R*)-(8-methyl-10,11-dihydrobenzo[6,7]oxepino[3,2-b]pyridin-11-yl)methanamine], the EC50 on human TAAR1 receptors was less than 1000 nM. The IC50 on human 5-HT2A receptor (setting [1]) and on human 5-HT7 receptor was less than 1000 nM each time.

As for `CNCC1Cc2cc(C)ccc2Oc2cccnc21` (single isomer, unassigned) [Compound 130, (S*)—N-methyl-1-(8-methyl-10,11-dihydrobenzo[6,7]oxepino[3,2-b]pyridin-11-yl)methanamine], on human TAAR1 receptors, the EC50 was less than 1000 nM. Further, the values for the concentration for half-maximal inhibition (IC50) on human 5-HT2A receptor (setting [1]) and at human 5-HT7 receptor were less than 1000 nM and 1000 to 10000 nM, respectively.

`CNCC1Cc2cc(C)ccc2Oc2cccnc21` (single isomer, unassigned) [Compound 131, (R*)—N-methyl-1-(8-methyl-10,11-dihydrobenzo[6,7]oxepino[3,2-b]pyridin-11-yl)methanamine]: at human TAAR1 receptors, the half-maximal effective concentration (EC50) is less than 1000 nM. Also, the IC50 on human 5-HT2A receptor (setting [2]) and at human 5-HT7 receptor was less than 1000 nM in each case.

Compound `Cc1ccc2c(c1)Oc1cccnc1C(CN)C2` (single isomer, unassigned) [Compound 132, (S*)-(7-methyl-10,11-dihydrobenzo[6,7]oxepino[3,2-b]pyridin-11-yl)methanamine] returned an EC50 on human TAAR1 receptors of less than 1000 nM. Moreover, the IC50 was greater than 10000 nM on human 5-HT2A receptor (setting [1]) and no less than 10000 nM at human 5-HT7 receptor.

`Cc1ccc2c(c1)Oc1cccnc1C(CN)C2` (single isomer, unassigned) [Compound 133, (R*)-(7-methyl-10,11-dihydrobenzo[6,7]oxepino[3,2-b]pyridin-11-yl)methanamine] showed a concentration for a half-maximal effect (EC50) at human TAAR1 receptors of less than 1000 nM. Further, the IC50 on human 5-HT2A receptor (setting [1]) was 1000 to 10000 nM; on human 5-HT7 receptor it was no less than 10000 nM.

As for `CNCC1Cc2ccc(C)cc2Oc2cccnc21` (single isomer, unassigned) [Compound 134, (S*)—N-methyl-1-(7-methyl-10,11-dihydrobenzo[6,7]-oxepino[3,2-b]pyridin-11-yl)methanamine], the EC50 on human TAAR1 receptors is less than 1000 nM. In addition, the results for the IC50 at human 5-HT2A receptor (setting [1]) and on human 5-HT7 receptor were less than 1000 nM and 1000 to 10000 nM, respectively.

Regarding `CNCC1Cc2ccc(C)cc2Oc2cccnc21` (single isomer, unassigned) [Compound 135, (R*)—N-methyl-1-(7-methyl-10,11-dihydrobenzo[6,7]oxepino[3,2-b]pyridin-11-yl)methanamine], the EC50 at human TAAR1 receptors was less than 1000 nM. Moreover, the IC50 on human 5-HT2A receptor (setting [2]) is less than 1000 nM; on human 5-HT7 receptor it was 1000 to 10000 nM.

Compound `NCC1Cc2c(F)cccc2Oc2cccnc21` (single isomer, unassigned) [Compound 136, (S*)-(9-fluoro-10,11-dihydrobenzo[6,7]oxepino[3,2-b]pyridin-11-yl)methanamine] registered an EC50 on human TAAR1 receptors of less than 1000 nM. The IC50 on human 5-HT2A receptor (setting [1]) is 1000 to 10000 nM; at human 5-HT7 receptor, no less than 10000 nM.

With `NCC1Cc2c(F)cccc2Oc2cccnc21` (single isomer, unassigned) [Compound 137, (R*)-(9-fluoro-10,11-dihydrobenzo[6,7]oxepino[3,2-b]pyridin-11-yl)methanamine], on human TAAR1 receptors, the 50% effective concentration (EC50) is less than 1000 nM. Further, the 50% inhibitory concentration (IC50) was greater than 10000 nM on human 5-HT2A receptor (setting [1]) and no less than 10000 nM on human 5-HT7 receptor.

In the case of `CNCC1Cc2c(F)cccc2Oc2cccnc21` (single isomer, unassigned) [Compound 138, (S*)-1-(9-fluoro-10,11-dihydrobenzo[6,7]oxepino[3,2-b]pyridin-11-yl)-N-methylmethanamine], the EC50 on human TAAR1 receptors was less than 1000 nM. The half-inhibitory concentration (IC50) was less than 1000 nM at human 5-HT2A receptor (setting [1]) and no less than 10000 nM at human 5-HT7 receptor.

In turn, `Cc1cccc2c1CC(CN)c1ncccc1O2` (single isomer, unassigned) [Compound 140, (S*)-(9-methyl-10,11-dihydrobenzo[6,7]oxepino[3,2-b]pyridin-11-yl)methanamine] displayed an EC50 at human TAAR1 receptors of less than 1000 nM. Moreover, the IC50 at human 5-HT2A receptor (setting [1]) was greater than 10000 nM; on human 5-HT7 receptor, no less than 10000 nM.

`Cc1cccc2c1CC(CN)c1ncccc1O2` (single isomer, unassigned) [Compound 141, (R*)-(9-methyl-10,11-dihydrobenzo[6,7]oxepino[3,2-b]pyridin-11-yl)methanamine] gave an EC50 on human TAAR1 receptors of less than 1000 nM. The IC50 on human 5-HT2A receptor (setting [1]) was less than 1000 nM; at human 5-HT7 receptor it was no less than 10000 nM.

Take `CNCC1Cc2c(C)cccc2Oc2cccnc21` (single isomer, unassigned) [Compound 143, (R*)-(9-methyl-10,11-dihydrobenzo[6,7]oxepino[3,2-b]pyridin-11-yl)-N-methylmethanamine]: at human TAAR1 receptors, the EC50 is less than 1000 nM. Also, the IC50 on human 5-HT2A receptor (setting [1]) was less than 1000 nM; on human 5-HT7 receptor, no less than 10000 nM.

Take `NCC1Cc2c(Cl)cccc2Oc2cccnc21` (single isomer, unassigned) [Compound 144, (S*)-(9-chloro-10,11-dihydrobenzo[6,7]oxepino[3,2-b]pyridin-11-yl)methanamine]: on human TAAR1 receptors, the concentration for a half-maximal effect (EC50) is less than 1000 nM. Also, the IC50 was less than 1000 nM on human 5-HT2A receptor (setting [1]) and no less than 10000 nM on human 5-HT7 receptor.

In turn, `NCC1Cc2c(Cl)cccc2Oc2cccnc21` (single isomer, unassigned) [Compound 145, (R*)-(9-chloro-10,11-dihydrobenzo[6,7]oxepino[3,2-b]pyridin-11-yl)methanamine] had a concentration for a half-maximal effect (EC50) at human TAAR1 receptors of less than 1000 nM. The half-inhibitory concentration (IC50) at human 5-HT2A receptor (setting [2]) was less than 1000 nM; at human 5-HT7 receptor, no less than 10000 nM.

`CNCC1Cc2c(Cl)cccc2Oc2cccnc21` (single isomer, unassigned) [Compound 147, (R*)-(9-chloro-10,11-dihydrobenzo[6,7]oxepino[3,2-b]pyridin-11-yl)-N-methylmethanamine]: the concentration giving a half-maximal response (EC50) at human TAAR1 receptors was less than 1000 nM. The results for the IC50 at human 5-HT2A receptor (setting [1]) and on human 5-HT7 receptor were less than 1000 nM and no less than 10000 nM, respectively.

The compound `Cc1ccc2c(n1)C(CN)Cc1ccccc1O2` (single isomer, unassigned) [Compound 149, (R*)-(2-methyl-10,11-dihydrobenzo[6,7]oxepino[3,2-b]pyridin-11-yl)methanamine] yielded a half-maximal effective concentration (EC50) at human TAAR1 receptors of less than 1000 nM. In addition, the IC50 on human 5-HT2A receptor (setting [1]) is less than 1000 nM; on human 5-HT7 receptor, no less than 10000 nM.
